# Experiments:
# [1] = target: T1, human CB2R (Homo sapiens, UniProt P34972); experiment: CB2R mediated modulation of cAMP synthesis; type: cell-based; set-up: host or cells: CHO cells; conditions: agonists decrease forskolin induced production of cAMP; CHO cells expressing human CB2R
# Protocol: B. CB2R Mediated Modulation of cAMP Synthesis:
# Compounds of the invention were evaluated for their CB2 agonist or inverse agonistic activity in accordance with the following experimental method.
# CHO cells expressing human CB2R (Euroscreen) were plated at a density of 5000 cells per well in 384 well plates and incubated overnight at 37° C. After removing the media, the cells were treated with test compounds diluted in stimulation buffer containing 1 mM IBMX, 0.25% BSA and 10 uM Forskolin. The assay was incubated for 30 minutes at 37° C. Cells were lysed and the cAMP concentration was measured using DiscoverX-XS cAMP kit, following the manufacturer's protocol. In this setting, agonists will decrease forskolin induced production of cAMP while inverse agonists will further increase forskolin induced production of cAMP. EC50 of agonists were calculated as follows. The maximal amount of cAMP produced by forskolin compared to the level of cAMP inhibited by 1 uM CP55940 is defined as 100%. The EC50 value of each test compound was determined as the concentration at which 50% of the forskolin-stimulated cAMP synthesis was inhibited. Data was analyzed using a four-parameter logistic model. (Model 205 of XLfit 4.0).
# [2] = target: T1, human CB2R; experiment: Human CB2 receptor binding (3H-CP55940 competition, SPA); set-up: purchased Perkin Elmer Life and Analytical Sciences; host or cells: HEK293 EBNA cells, stably transfected; conditions: through the use of the above described assays (CB1/CB2 binding, CB2R and CB1R cAMP); assay not specified further
# Protocol: A. Human CB1 and CB2 Receptor Binding:
# CB2 membranes were purchased and made from HEK293 EBNA cells stably transfected with human CB2 receptor cDNA (Perkin Elmer Life and Analytical Sciences). CB1 membranes were isolated from HEK cells stably co-transfected with human CB1 receptor and Gα16 cDNA's. The membrane preparation was bound to scintillation beads (Ysi-Poly-L-lysine SPA beads, GE Healthcare) for 4 hours at room temperature in assay buffer containing 50 mM Tris, pH 7.5, 2.5 mM EDTA, 5 mM MgCl2, 0.8% fatty acid free Bovine Serum Albumin. Unbound membrane was removed by washing in assay buffer. Membrane-bead mixture was added to 96-well assay plates in the amounts of 15 ug membrane per well (CB2) or 2.5 ug per well (CB1) and 1 mg SPA bead per well. Compounds were added to the membrane-bead mixture in dose-response concentrations ranging from 1×10^−5 M to 1×10^−10 M with 0.25% DMSO, final. The competition reaction was initiated with the addition of ^3H-CP55940 (Perkin Elmer Life and Analytical Sciences) at a final concentration of 1.5 nM (CB2) or 2.5 nM (CB1). The reaction was incubated at room temperature for 18 hours and read on TopCount NXT plate reader. Total and non-specific binding was determined in the absence and presence of 1.25 uM Win 55212 (Sigma). IC50 values for each compound were calculated as the concentration of compound that inhibits the specific binding of the radioactively labeled ligand to the receptor by 50% using the XLFit 4.1 four parameter logistic model. IC50 values were converted to inhibition constant (Ki) values using Cheng-Prusoff equation.
# T1 sequence (P34972 whole entry): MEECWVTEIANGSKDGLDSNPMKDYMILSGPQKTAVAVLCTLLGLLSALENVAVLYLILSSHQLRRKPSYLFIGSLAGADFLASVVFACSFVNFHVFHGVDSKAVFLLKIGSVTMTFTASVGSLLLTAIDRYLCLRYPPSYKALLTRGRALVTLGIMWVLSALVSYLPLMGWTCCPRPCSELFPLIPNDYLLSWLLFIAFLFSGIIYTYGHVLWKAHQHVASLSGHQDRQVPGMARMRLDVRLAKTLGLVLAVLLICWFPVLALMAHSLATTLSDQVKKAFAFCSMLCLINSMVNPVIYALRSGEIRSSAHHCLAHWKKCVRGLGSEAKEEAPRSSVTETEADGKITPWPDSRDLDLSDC
SMILES,found to exhibit agonistic activity [1],found to exhibit activity [2]
"CC(C)c1ccccc1Nc1ccc(CN2CCO[C@@H](c3ccccc3)C2)cn1 [Example 23, (2-Isopropyl-phenyl)-[5-((S)-2-phenyl-morpholin-4-ylmethyl)-pyridin-2-yl]-amine]",exhibit agonistic activity,exhibit activity
"Clc1ccc(Nc2ccc(CN3CCO[C@@H](c4ccccc4)C3)cn2)cc1Cl [Example 27, (3,4-Dichloro-phenyl)-[5-((S)-2-phenyl-morpholin-4-ylmethyl)-pyridin-2-yl]-amine]",exhibit agonistic activity,exhibit activity
"COc1ccc(Nc2ccc(CN3CCO[C@@H](c4ccccc4)C3)cn2)cc1 [Example 2, (4-Methoxy-phenyl)-[5-((S)-2-phenyl-morpholin-4-ylmethyl)-pyridin-2-yl]-amine]",exhibit agonistic activity,exhibit activity
"CCc1ccc(Nc2ccc(CN3CCO[C@@H](c4ccccc4)C3)cn2)cc1 [Example 5, (4-Ethyl-phenyl)-[5-((S)-2-phenyl-morpholin-4-ylmethyl)-pyridin-2-yl]-amine]",exhibit agonistic activity,exhibit activity
"Clc1ccc(Cl)c(Nc2ccc(CN3CCO[C@@H](c4ccccc4)C3)cn2)c1 [Example 20, (2,5-Dichloro-phenyl)-[5-((S)-2-phenyl-morpholin-4-ylmethyl)-pyridin-2-yl]-amine]",exhibit agonistic activity,exhibit activity
"CCOc1ccc(Nc2ccc(CN3CCO[C@@H](c4ccccc4)C3)cn2)cc1 [Example 3, (4-Ethoxy-phenyl)-[5-((S)-2-phenyl-morpholin-4-ylmethyl)-pyridin-2-yl]-amine]",exhibit agonistic activity,exhibit activity
"Clc1cccc(Nc2ccc(CN3CCO[C@@H](c4ccccc4)C3)cn2)c1Cl [Example 18, (2,3-Dichloro-phenyl)-[5-((S)-2-phenyl-morpholin-4-ylmethyl)-pyridin-2-yl]-amine]",exhibit agonistic activity,exhibit activity
"Fc1ccc(Nc2ccc(CN3CCO[C@@H](c4ccccc4)C3)cn2)cc1 [Example 29, (4-Fluoro-phenyl)-[5-((S)-2-phenyl-morpholin-4-ylmethyl)-pyridin-2-yl]-amine]",exhibit agonistic activity,exhibit activity
"Clc1cccc(Nc2ccc(CN3CCO[C@@H](c4ccccc4)C3)cn2)c1 [Example 26, (3-Chloro-phenyl)-[5-((S)-2-phenyl-morpholin-4-ylmethyl)-pyridin-2-yl]-amine]",exhibit agonistic activity,exhibit activity
"c1ccc(Nc2ccc(CN3CCO[C@@H](c4ccccc4)C3)cn2)cc1 [Example 15, Phenyl-[5-((S)-2-phenyl-morpholin-4-ylmethyl)-pyridin-2-yl]-amine]",exhibit agonistic activity,exhibit activity
"Fc1ccccc1Nc1ccc(CN2CCO[C@@H](c3ccccc3)C2)cn1 [Example 16, (2-Fluoro-phenyl)-[5-((S)-2-phenyl-morpholin-4-ylmethyl)-pyridin-2-yl]-amine]",exhibit agonistic activity,exhibit activity
"c1ccc([C@H]2CN(Cc3ccc(Nc4cccc5cnccc45)nc3)CCO2)cc1 [Example 14, Isoquinolin-5-yl-[5-((S)-2-phenyl-morpholin-4-ylmethyl)-pyridin-2-yl]-amine]",exhibit agonistic activity,exhibit activity
"Clc1ccc(Nc2ccc(CN3CCO[C@@H](c4ccccc4)C3)cn2)c(Cl)c1 [Example 19, (2,4-Dichloro-phenyl)-[5-((S)-2-phenyl-morpholin-4-ylmethyl)-pyridin-2-yl]-amine]",exhibit agonistic activity,exhibit activity
"c1ccc([C@H]2CN(Cc3ccc(Nc4cnc5ccccc5c4)nc3)CCO2)cc1 [Example 11, [5-((S)-2-Phenyl-morpholin-4-ylmethyl)-pyridin-2-yl]-quinolin-3-yl-amine]",exhibit agonistic activity,exhibit activity
"c1ccc([C@H]2CN(Cc3ccc(Nc4ccncc4)nc3)CCO2)cc1 [Example 10, [5-((S)-2-Phenyl-morpholin-4-ylmethyl)-pyridin-2-yl]-pyridin-4-yl-amine]",exhibit agonistic activity,exhibit activity
"Cc1ccccc1Nc1ccc(CN2CCO[C@@H](c3ccccc3)C2)cn1 [Example 24, [5-((S)-2-Phenyl-morpholin-4-ylmethyl)-pyridin-2-yl]-o-tolyl-amine]",exhibit agonistic activity,exhibit activity
"COc1ccccc1Nc1ccc(CN2CCO[C@@H](c3ccccc3)C2)cn1 [Example 21, (2-Methoxy-phenyl)-[5-((S)-2-phenyl-morpholin-4-ylmethyl)-pyridin-2-yl]-amine]",exhibit agonistic activity,exhibit activity
"CC(C)(C)c1cc(Nc2ccc(CN3CCO[C@@H](c4ccccc4)C3)cn2)no1 [Example 1, (5-tert-Butyl-isoxazol-3-yl)-[5-((S)-2-phenyl-morpholin-4-ylmethyl)-pyridin-2-yl]-amine]",exhibit agonistic activity,exhibit activity
"c1ccc([C@H]2CN(Cc3ccc(Nc4ccncn4)nc3)CCO2)cc1 [Example 8, [5-((S)-2-Phenyl-morpholin-4-ylmethyl)-pyridin-2-yl]-pyrimidin-4-yl-amine]",exhibit agonistic activity,exhibit activity
"CCOc1ccccc1Nc1ccc(CN2CCO[C@@H](c3ccccc3)C2)cn1 [Example 22, (2-Ethoxy-phenyl)-[5-((S)-2-phenyl-morpholin-4-ylmethyl)-pyridin-2-yl]-amine]",exhibit agonistic activity,exhibit activity
"FC(F)(F)Oc1ccc(Nc2ccc(CN3CCO[C@@H](c4ccccc4)C3)cn2)cc1 [Example 4, [5-((S)-2-Phenyl-morpholin-4-ylmethyl)-pyridin-2-yl]-(4-trifluoromethoxy-phenyl)-amine]",exhibit agonistic activity,exhibit activity
